Structures can show the parent of a compound that is named as a salt.
Key:
human platelets = experiment: Inhibition of the binding of ^3 H-BIBU 52 to human platelets (fibrinogen binding test); settings: ^3 H-BIBU 52 5 nM, human platelet-rich plasma, room temperature, 20 minutes; 50% inhibition of binding
Procedure: 1. Inhibition of the binding of ^3 H-BIBU 52 to human platelets
The free and bound ligand is separated by centrifugation and quantitatively determined by scintillation counting. From the measurements, the inhibition of ^3 H-BIBU 52 binding by the test substance is determined.
For this purpose, donor blood is taken from an anticubital vein and anticoagulated with trisodium citrate (final concentration 13 mM). The blood is centrifuged at 170×g for 10 minutes and the supernatant platelet-rich plasma (PRP) is removed. The remaining blood is intensely centrifuged off once more to obtain plasma. The PRP is diluted 1:10 with autologous plasma. […] are incubated with […] of physiological saline solution, 100 ml of test substance solution, 50 ml of ^14 C-sucrose (3700 Bq) and 50 ml of ^3 H-BIBU-52 (final concentration: 5 nM at room temperature for 20 minutes. To measure the non-specific binding, instead of the test substance 5 ml of BIBU 52 (final concentration: […]) are employed. The samples are centrifuged at 10,000×g for 20 seconds and the supernatant is removed. 100 ml of this are measured to determine the free ligand. The pellet is dissolved in 500 ml of 0.2N NaOH, and 450 ml are treated with 2 ml of scintillator and 25 ml of 5N Hcl and measured. The residual plasma still remaining in the pellet is determined from the ^14 C content, the bound ligand from ^3 H-measurement.

platelet aggregation = experiment: Inhibition of collagen-induced platelet aggregation (Born and Cross) in platelet-rich plasma; assay type: cell-based, human (platelet-rich plasma of healthy subjects); settings: human platelet-rich plasma, 10 minutes preincubation at 37° C., 50% change in optical density
Procedure: 2. Antithrombotic effect Platelets aggregation is measured by the method of Born and Cross (J. Physiol. 170, 397 (1964)) in platelet-rich plasma of healthy subjects. To inhibit clotting, the blood is treated with sodium citrate, 3.14% in the volume ratio 1:10. Collagen-induced aggregation The course of the decrease in the optical density of the platelet suspension is measured and recorded photometrically after addition of the aggregation-inducing substance. From the angle of inclination of the density curve, the aggregation rate is deduced. The point of the curve at which the greatest light transmission exists is used to calculate the optical density. The amount of collagen is selected to be as low as possible, but in such a way that a reaction curve with an irreversible course results. Commercially available collagen from Hormonchemie, Munich, is used. Before the addition of collagen, the plasma is in each case incubated at 37° C. with the substance for 10 minutes. From the measurements obtained, an EC50 is determined graphically which relates to a 50% change in the optical density in the sense of an inhibition of aggregation.

SMILES | IC50 (human platelets) [nM] | EC50 (platelet aggregation) [nM]
COC(=O)COc1ccc(NC(=O)c2sc(C3CCNCC3)nc2C)cc1 [2(3), 5-[[4-(Methoxycarbonylmethoxy)phenyl]aminocarbonyl]-4-methyl-2-(4-piperidyl)-1,3-thiazole hydrobromide] | 300 | 140
O=C(O)CO[C@H]1CC[C@H](NC(=O)c2cnc(C3CCNCC3)s2)CC1 [2(12), 5-[[trans-4-(Carboxymethoxy)cyclohexyl]aminocarbonyl]-2-(4-piperidyl)-1,3-thiazole hydrobromide] | 72 | 140
Cc1nc(C2CCNCC2)sc1C(=O)Nc1ccc(OCC(=O)O)cc1 [4(3), 5-[[4-(Carboxymethoxy)phenyl]aminocarbonyl]-4-methyl-2-(4-piperidyl)-1,3-thiazole hydrobromide] | 45 | 130
O=C(O)COc1ccc(NC(=O)c2nnc(C3CCNCC3)s2)cc1 [4(6), 5-[[4-(Carboxymethoxy)phenyl]aminocarbonyl]-2-(4piperidyl)-1,3,4-thiadiazole hydrochloride] | 64 | 170
O=C(/C=C/c1cn(C2CCNCC2)cn1)N[C@H]1CC[C@H](C(=O)O)CC1 [4(8), 4-[trans-2-[(trans-4-Carboxycyclohexyl)aminocarbonyl]-ethenyl]-1-(4-piperidyl)imidazole dihydrochloride] | 2500 | 1800
O=C(O)COc1ccc(NC(=O)c2cnc(C3CCNCC3)s2)cc1 [4(19), 5-[[4-(Carboxymethoxy)phenyl]aminocarbonyl]-2-(4-piperidyl)-1,3-thiazole hydrate] | 38 | 100
O=C(O)CC[C@H]1CC[C@H](NC(=O)c2cnc(C3CCNCC3)s2)CC1 [4(20), 5-[[trans-4-(2-Carboxyethyl)cyclohexyl]aminocarbonyl]-2-(4-piperidyl)-1,3-thiazole hydrobromide] | 63 | 120
O=C(N[C@H]1CC[C@H](C(=O)O)CC1)c1cn(CCC2CCNCC2)cn1 [4(27), 4-[[trans-4-Carboxycyclohexyl]aminocarbonyl]-1-[2-(4-piperidyl)ethyl]imidazole dihydrochloride] | 190 | 280
CS(=O)(=O)N(CC(=O)O)[C@H]1CC[C@H](C(=O)Nc2cn(C3CCNCC3)cn2)CC1 [5(2), 4-[[trans-4-(N-Carboxymethyl-N-methanesulphonylamino)-cyclohexyl]carbonylamino]-1-(4-piperidyl)imidazole dihydrochloride] | 1600 | 3800
O=C(O)CC[C@H]1CC[C@H](NC(=O)c2cn(C3CCNCC3)cn2)CC1 [Example 4, 4-[[trans-4-(2-Carboxyethyl)cyclohexyl]aminocarbonyl]-1-(4-piperidyl)imidazole dihydrochloride] | 120 | 160
